Laboratory results published in patent US20260092061A1, “COMPOUNDS FOR TARGETED PROTEIN DEGRADATION” (Amphista Therapeutics Limited, priority 2022, published 2026).

Biological target: T1, BRD9 (Homo sapiens, UniProt Q9H8M2)
T1 sequence (Q9H8M2 1-597): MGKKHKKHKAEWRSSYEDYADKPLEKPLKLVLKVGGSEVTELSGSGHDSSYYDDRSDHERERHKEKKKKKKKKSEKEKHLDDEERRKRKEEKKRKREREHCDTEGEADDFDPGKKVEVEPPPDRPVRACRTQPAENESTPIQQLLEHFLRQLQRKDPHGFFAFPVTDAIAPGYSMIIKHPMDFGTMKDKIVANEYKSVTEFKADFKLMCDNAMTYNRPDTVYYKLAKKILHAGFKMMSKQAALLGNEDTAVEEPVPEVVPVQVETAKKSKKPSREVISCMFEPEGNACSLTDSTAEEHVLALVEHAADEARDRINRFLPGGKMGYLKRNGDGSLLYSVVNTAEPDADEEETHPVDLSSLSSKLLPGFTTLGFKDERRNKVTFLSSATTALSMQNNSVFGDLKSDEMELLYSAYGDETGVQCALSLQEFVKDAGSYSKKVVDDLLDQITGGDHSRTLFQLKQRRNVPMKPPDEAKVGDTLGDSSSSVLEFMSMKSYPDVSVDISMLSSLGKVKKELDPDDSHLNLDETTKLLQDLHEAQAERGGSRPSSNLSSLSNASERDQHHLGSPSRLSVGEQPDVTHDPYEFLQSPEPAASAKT
Experiment: Degradation of BRD9 (IF), immunofluorescence in MV4-11 cells, 24 hours (Assay Protocol 2)
Assay type: cell-based
Set-up: A suspension of MV4-11 cells (ATCC CRL-9591) was prepared; host or cells: MV4-11
Details: BRD9 degradation; for DC50: Assay protocol 2, read-out: DC50; for Dmax: MV4-11, Assay protocol 2, read-out: Dmax
Method in brief: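 MV4-11 cells treated with compound 24 h at 37° C., then fixed, permeabilised and immunostained for BRD9 (anti-BRD9 E4Q3F, Alexa 647 secondary, Hoechst counterstain). High-content imaging quantified nuclear BRD9 signal; % BRD9 remaining normalised to DMSO and 100 nM CFT-8634 controls.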

| DC50 [µM] | Dmax [%] | SMILES |
| --- | --- | --- |
| 0.025 to 1 | 70 to 75 | COc1cc(-c2cn(C)c(=O)c(C)c2C)cc(OC)c1CN1C[C@H](C)N(Cc2cccc3c2CCN(C(=O)/C(C#N)=C/C(C)(C)C)C3C(C)C)C[C@H]1C (mixture of isomers) [Compound C12, (E/Z)-2-(5-(((2S,5R)-4-(2,6-dimethoxy-4-(1,4,5-trimethyl-6-oxo-1,6-dihydropyridin-3-yl)benzyl)-2,5-dimethylpiperazin-1-yl)methyl)-1-isopropyl-1,2,3,4-tetrahydroisoquinoline-2-carbonyl)-4,4-dimethylpent-2-enenitrile] |
| < 0.00125 | > 75 | COc1cc(-c2cn(C)c(=O)c(C)c2C)cc(OC)c1CN1CCN(Cc2cccc3c2CCN(C(=O)/C(C#N)=C/C(C)(C)F)C3C)C2(CC2)C1 (mixture of isomers) [Compound B140, (E/Z)-2-[5-[[7-[[2,6-dimethoxy-4-(1,4,5-trimethyl-6-oxo-3-pyridyl)phenyl]methyl]-4,7-diazaspiro[2.5]octan-4-yl]methyl]-1-methyl-3,4-dihydro-1H-isoquinoline-2-carbonyl]-4-fluoro-4-methyl-pent-2-enenitrile] |
| 0.025 to 1 | > 75 | COc1cc(-c2cn(C)c(=O)c(C)c2C)ccc1OC1CCC(Cc2cccc3c2CCN(C(=O)/C(C#N)=C/C(C)(C)N2CCN(C)CC2)C3C(C)C)CC1 (stereo not shown) [Compound C85] |
| 0.025 to 1 | 40 to 70 | COc1cc(-c2cn(C)c(=O)c(C)c2C)cc(OC)c1CN1CCC(Oc2cccc3c2CCN(C(=O)/C(C#N)=C/C(C)(C)C)C3C)C1 (stereo in doubt) [Compound B134, (E)-2-(5-(((S)-1-(2,6-dimethoxy-4-(1,4,5-trimethyl-6-oxo-1,6-dihydropyridin-3-yl)benzyl)pyrrolidin-3-yl)oxy)-1-methyl-1,2,3,4-tetrahydroisoquinoline-2-carbonyl)-4,4-dimethylpent-2-enenitrile] |
| 0.01 to 0.025 | > 75 | COc1cc(-c2cn(C)c(=O)c(C)c2C)cc(OC)c1CN1CCN(Cc2cccc3c2CCN(C(=O)/C(C#N)=C/C(C)(C)C)C3C)C(C)(C)C1 (mixture of isomers) [Compound B98, (E/Z)-2-(5-((4-(2,6-dimethoxy-4-(1,4,5-trimethyl-6-oxo-1,6-dihydropyridin-3-yl)benzyl)-2,2-dimethylpiperazin-1-yl)methyl)-1-methyl-1,2,3,4-tetrahydroisoquinoline-2-carbonyl)-4,4-dimethylpent-2-enenitrile] |
| < 0.00125 | > 75 | COc1cc(-c2cn(C)c(=O)c(C)c2C)cc(OC)c1CN1CCC(COc2ccc3c(c2)[C@H](C)N(C(=O)/C(C#N)=C/C(C)(C)C)CC3)CC1 [Compound C61] |
| 0.025 to 1 | 40 to 70 | COc1cc(-c2cn(C)c(=O)c(C)c2C)cc(OC)c1CN1CCN(Cc2cccc3c2CCN(C(=O)/C(C#N)=C/C(C)(C)C)C3C)C(=O)C1 (mixture of isomers) [Compound B155, (E/Z)-2-(5-((4-(2,6-dimethoxy-4-(1,4,5-trimethyl-8-oxo-1,6-dihydropyridin-3-yl)benzyl)-2-oxopiperazin-1-yl)methyl)-1-methyl-1,2,3,4-tetrahydroisoquinoline-2-carbonyl)-4,4-dimethylpent-2-enenitrile] |
| 0.00125 to 0.01 | > 75 | COc1cc(-c2cn(C)c(=O)c(C)c2C)cc(OC)c1CN1CCN(Cc2cccc3c2CCN(C(=O)/C(C#N)=C/c2cccc(Br)n2)C3C)C(C(C)C)C1 (mixture of isomers) [Compound B131, (E/Z)-3-(6-bromopyridin-2-yl)-2-(5-((4-(2,6-dimethoxy-4-(1,4,5-trimethyl-6-oxo-1,6-dihydropyridin-3-yl)benzyl)-2-isopropylpiperazin-1-yl)methyl)-1-methyl-1,2,3,4-tetrahydroisoquinoline-2-carbonyl)acrylonitrile] |
| < 0.00125 | 70 to 75 | COc1cc(-c2cn(C)c(=O)c(C)c2C)cc(OC)c1C(=O)N1CCC(Oc2cccc(C3CCCN3C(=O)/C(C#N)=C/C(C)(C)C)c2)CC1 (mixture of isomers) [Compound B79, (E/Z)-2-(2-(3-((1-(2,6-dimethoxy-4-(1,4,5-trimethyl-1-oxo-1,6-dihydropyridin-3-yl)benzoyl)piperidin-4-yl)oxy)phenyl)pyrrolidine-1-carbonyl)-4,4-dimethylpent-2-enenitrile] |
| 0.00125 to 0.01 | > 75 | COc1cc(-c2cn(C)c(=O)c(C)c2C)cc(OC)c1CN1CC[C@H](Oc2cccc(C3CCCN3C(=O)/C(C#N)=C/C(C)(C)C)c2)C1 (mixture of isomers) [Compound B67, (E/Z)-2-(2-(3-(((S)-1-(2,6-dimethoxy-4-(1,4,5-trimethyl-6-oxo-1,6-dihydropyridin-3-yl)benzyl)417yrrolidine-3-yl)oxy)phenyl)pyrrolidine-1-carbonyl)-4,4-dimethylpent-2-enenitrile] |
| 0.00125 to 0.01 | > 75 | COc1cc(-c2cn(C)c(=O)c(C)c2C)cc(OC)c1CN1CCN(Cc2cccc3c2CCN(C(=O)/C(C#N)=C/C2CCOCC2)C3C)C2(CC2)C1 (mixture of isomers) [Compound B137, (E/Z)-2-(5-((7-(2,6-dimethoxy-4-(1,4,5-trimethyl-6-oxo-1,6-dihydropyridin-3-yl)benzyl)-4,7-diazaspiro[2.5]octan-4-yl)methyl)-1-methyl-1,2,3,4-tetrahydroisoquinoline-2-carbonyl)-3-(tetrahydro-2H-pyran-4-yl)acrylonitrile] |
| < 0.00125 | > 75 | COc1cc(-c2cn(C)c(=O)c(C)c2C)cc(OC)c1CN1CCCN(Cc2cccc3c2CCN(C(=O)/C(C#N)=C/c2cccc(C(F)(F)F)n2)C3C)CC1 (mixture of isomers) [Compound B68, (E/Z)-2-(5-((4-(2,6-dimethoxy-4-(1,4,5-trimethyl-6-oxo-1,6-dihydropyridin-3-yl)benzyl)-1,4-diazepan-1-yl)methyl)-1-methyl-1,2,3,4-tetrahydroisoquinoline-2-carbonyl)-3-(6-(trifluoromethyl)pyridin-2-yl)acrylonitrile] |
| 0.025 to 1 | 40 to 70 | COc1cc(-c2cn(C)c(=O)c(C)c2C)cc(OC)c1CN1CC(N(C)Cc2ccc3c(c2)[C@@H](C)N(C(=O)/C(C#N)=C/C(C)(C)C)CC3)C1 (single isomer, unassigned) [Compound C71, (E/Z)-2-(7-(((1-(2,6-dimethoxy-4-(1,4,5-trimethyl-6-oxo-1,6-dihydropyridin-3-yl)benzyl)460zetidine-4-yl)(methyl)amino)methyl)-1-methyl-1,2,3,4-tetrahydroisoquinoline-2-carbonyl)-4,4-dimethylpent-2-enenitrile] |
| 0.025 to 1 | > 75 | COc1cc(-c2cn(C)c(=O)c(C)c2C)cc(OC)c1CN1CCN(S(=O)(=O)c2cccc3c2CCN(C(=O)/C(C#N)=C\C(C)(C)C)C3C)CC1 (mixture of isomers) [Compound C75, (E/Z)-2-(5-((4-(2,6-dimethoxy-4-(1,4,5-trimethyl-6-oxo-1,6-dihydropyridin-3-yl)benzyl)piperazin-1-yl)sulfonyl)-1-methyl-1,2,3,4-tetrahydroisoquinoline-2-carbonyl)-4,4-dimethylpent-2-enenitrile] |
